Assay results as given in patent US20190218226A1, “PRODRUGS OF ANTICANCER AGENTS INDOTECAN AND INDIMITECAN” (Purdue Research Foundation, priority 2016, published 2019).
Counter-ions that a name gives are not always drawn. Like-named read-outs stand apart in the source and are kept apart here.

Columns and labels:
Human recombinant Top1 = target: T1, Human recombinant Top1 (Homo sapiens, UniProt P11387); assay: Top1-mediated DNA cleavage assay; type: biochemical; parameters: key to Top1 inhibitory activity (level): 0, no detectable activity; +, weak activity; ++, similar activity to compound 4; +++, greater activity than 4; ++++, equipotent with 1; ++(+) would be between ++ and +++; settings: for Top 1 Cleavage: graded relative to 1 μM camptothecin; for Top1 inhibitory activity (level): scored relative to compounds 1 and 4
T1 construct: made in house
T1 sequence (P11387 1-765): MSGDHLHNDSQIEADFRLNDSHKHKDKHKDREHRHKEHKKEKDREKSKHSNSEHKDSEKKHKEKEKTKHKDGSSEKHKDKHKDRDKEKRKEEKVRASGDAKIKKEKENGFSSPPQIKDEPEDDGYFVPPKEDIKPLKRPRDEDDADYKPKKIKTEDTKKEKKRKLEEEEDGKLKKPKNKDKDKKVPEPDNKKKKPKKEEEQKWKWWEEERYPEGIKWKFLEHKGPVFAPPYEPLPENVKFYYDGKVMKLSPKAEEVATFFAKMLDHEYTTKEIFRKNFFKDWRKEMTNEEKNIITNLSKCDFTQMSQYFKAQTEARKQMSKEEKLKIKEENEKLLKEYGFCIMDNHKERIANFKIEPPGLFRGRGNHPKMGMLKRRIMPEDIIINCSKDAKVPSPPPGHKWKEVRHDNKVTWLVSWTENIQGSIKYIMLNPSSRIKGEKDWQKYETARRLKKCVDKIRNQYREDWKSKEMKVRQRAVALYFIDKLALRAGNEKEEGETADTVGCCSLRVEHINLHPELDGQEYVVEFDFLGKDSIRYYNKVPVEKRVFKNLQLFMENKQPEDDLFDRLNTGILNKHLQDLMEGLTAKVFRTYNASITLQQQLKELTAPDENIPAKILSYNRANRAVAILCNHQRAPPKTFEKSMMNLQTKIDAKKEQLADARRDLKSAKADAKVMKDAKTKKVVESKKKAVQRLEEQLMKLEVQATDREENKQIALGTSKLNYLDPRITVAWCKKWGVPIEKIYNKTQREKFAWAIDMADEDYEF
Protocol: All of the new indenoisoquinoline derivatives were tested in Top1-mediated DNA cleavage assays. For this purpose, a ^32P 3′-end labeled 117-bp DNA fragment was incubated with Top1 at four concentrations of a tested compound. The DNA fragments were separated on 20% PAGE denaturing gels. The Top1 inhibitory activities were assigned on the basis of the visual inspection of the number and intensities of the gel bands corresponding to Top1-mediated DNA cleavage fragments and scored relative to the Top1 inhibitory activity of compounds 1 and 4. Results are expressed in semiquantitative fashion: 0, no detectable activity; +, weak activity; ++, similar activity to compound 4; +++, greater activity than 4; ++++, equipotent with 1. Ambiguous scores (e.g., between two values) are designated with parentheses (e.g., ++(+) would be between ++ and +++). […] After conversion of the hydroxyl to a dimethylcarbamate, the observed Top1 inhibitory activity increased from ++(+) for compound 8 to +++ for compound 10. Introduction of an acetyl group at the 0-2 position yielded compound 11, which was also a Top1 poison with activity at the ++ level. Subsequently, several hydrophobic substituents were attached to the 0-2 position.
Topoisomerase I-Mediated DNA Cleavage Reactions.
Human recombinant Top1 was purified from baculovirus as previously described (Morrell, A., et al., J. Med. Chem. 2007, 50, 2040-2048). DNA cleavage reactions were prepared as previously reported with the exception of the DNA substrate (Strumberg, D., et al., J. Med. Chem. 1999, 42, 446-457). Briefly, a 117-bp DNA oligonucleotide (Integrated DNA Technologies) encompassing the previously identified Top1 cleavage sites in the 161-bp fragment from pBluescript SK(−) phagemid DNA was employed. This 117-bp oligonucleotide contains a single 5′-cytosine overhang, which was 3′-end-labeled by fill-in reaction with [α-^32P]dGTP in React 2 buffer (50 mM Tris-HCl, pH 8.0, […], 50 mM NaCl) with 0.5 unit of DNA polymerase I (Klenow fragment, New England BioLabs). Unincorporated [^32P]dGTP was removed using mini Quick Spin DNA columns (Roche, Indianapolis, Ind.), and the eluate containing the 3′-end-labeled DNA substrate was collected. Approximately 2 nM radiolabeled DNA substrate was incubated with recombinant Top1 in 20 μL of reaction buffer [10 mM Tris-HCl (pH 7.5), 50 mM KCl, 5 mM MgCl2, 0.1 mM EDTA, and 15 μg/mL BSA] at 25° C. for 20 min in the presence of various concentrations of compounds. The reactions were terminated by adding SDS (0.5% final concentration) followed by the addition of two volumes of loading dye (80% formamide, 10 mM sodium hydroxide, 1 mM sodium EDTA, 0.1% xylene cyanol, and 0.1% bromophenol blue). Aliquots of each reaction mixture were subjected to 20% denaturing PAGE. Gels were dried and visualized by using a phosphoimager and ImageQuant software (Molecular Dynamics). For simplicity, cleavage sites were numbered as previously described in the 161-bp fragment.

SF-539 = assay: NCI60 antiproliferative screen, CNS SF-539; type: cell-based, human; settings: SF-539, 48 h, sulforhodamine B, read-out: Cytotoxicity (GI50) CNS SF-539
Protocol: (§1) All of the indenoisoquinolines were tested for antiproliferative activity in the National Cancer Institute's 60 cell line screen (NCI60). The cells were incubated with the tested compounds at 100, 10, 1, 0.1, and 0.01 μM concentrations for 48 h before treatment with sulforhodamine B dye. Optical densities were recorded, and their ratios relative to that of the control were plotted as percentage growth against the log 10 of the tested compound concentrations. The concentration that corresponds to 50% growth inhibition (GI50) is calculated by interpolation between the points located above and below the 50% percentage growth. The mean-graph midpoint (MGM) is an estimated average of the GI50 values derived from the NCI collection of 60 human cancer cell lines, where during the MGM calculation, anticancer agents with GI50 values that are outside the testing range of 0.01-100 μM are arbitrarily assigned the values of 0.01 and 100 μM, respectively. […] Also, the GI50 values of many of the substances vs. individual human cancer cell lines are below the lowest concentration used (0.01 μM) in the standard NCI testing protocol. […] For example, the MGM cytotoxicity values of 9, 15-17, and 19 are all very close to each other, but the Top1 inhibitory activities range from +++(+) to 0.

MCF-7 = assay: NCI60 antiproliferative screen, breast MCF-7; type: cell-based, human; settings: MCF-7, 48 h, sulforhodamine B, read-out: Cytotoxicity (GI50) breast MCF-7
Protocol: as §1

DU-145 = assay: NCI60 antiproliferative screen, prostate DU-145; type: cell-based, human; settings: DU-145, 48 h, sulforhodamine B, read-out: Cytotoxicity (GI50) prostate DU-145
Protocol: as §1

UACC-62 = assay: NCI60 antiproliferative screen, melanoma UACC-62; type: cell-based, human; settings: UACC-62, 48 h, sulforhodamine B, read-out: Cytotoxicity (GI50) melanoma UACC-62
Protocol: as §1

SN12C = assay: NCI60 antiproliferative screen, renal SN12C; type: cell-based, human; settings: 48 h, sulforhodamine B, read-out: Cytotoxicity (GI50) renal SN12C
Protocol: as §1

[1] = tested on: all human cancer cell lines successfully tested (NCI60); assay: NCI60 mean graph midpoint for growth inhibition; type: cell-based; settings: for cytotoxicity relative to parent compound (in words) / GI50's against various cell lines (range in words): NCI60; for mean GI50 across NCI60 cell lines (MGM): all human cancer cell lines successfully tested, ± standard error, read-out: MGM (mean graph midpoint for growth inhibition)
Protocol: as §1

HOP-62 = assay: NCI60 antiproliferative screen, lung HOP-62; type: cell-based, human; settings: HOP-62, 48 h, sulforhodamine B, read-out: Cytotoxicity (GI50) lung HOP-62
Protocol: as §1

HCT-116 = assay: NCI60 antiproliferative screen, colon HCT-116; type: cell-based, human; settings: HCT-116, 48 h, sulforhodamine B, read-out: Cytotoxicity (GI50) Colon HCT-116
Protocol: as §1

OVCAR-3 = assay: NCI60 antiproliferative screen, ovarian OVCAR-3; type: cell-based, human; settings: OVCAR-3, 48 h, sulforhodamine B, read-out: Cytotoxicity (GI50) Ovarian OVCAR-3
Protocol: as §1

Top 1 Cleavage (Human recombinant Top1) | Top1 inhibitory activity (level) (Human recombinant Top1) | SMILES | GI50 (SF-539) [nM] | GI50 (MCF-7) [nM] | GI50 (DU-145) [nM] | GI50 (UACC-62) [nM] | GI50 (SN12C) [nM] | cytotoxicity relative to parent compound (in words) [1] | mean GI50 across NCI60 cell lines (MGM) [1] [nM] | GI50 (HOP-62) [nM] | GI50 (HCT-116) [nM] | GI50 (OVCAR-3) [nM] | GI50 (SF-539; Homo sapiens) [nM] | GI50 (MCF-7; Homo sapiens, MCF7) [nM] | GI50 (DU-145; Homo sapiens) [nM] | GI50 (UACC-62; Homo sapiens) [nM] | GI50 (SN12C; Homo sapiens) [nM] | GI50 (HOP-62; Homo sapiens) [nM] | GI50 (HCT-116; Homo sapiens) [nM] | GI50 (OVCAR-3; Homo sapiens) [nM] | other results
+ (+, between 20 and 50% activities) | + | COc1cc2c(=O)n(CCCN3CCOCC3)c3c(c2cc1OC(=O)c1ccccc1)C(=O)c1cc2c(cc1-3)OCO2 [Compound 13, 3-Methoxy-6-(3-morpholinopropyl)-5,12-dioxo-6,12-dihydro-5H-[1,3]dioxolo[4′,5′:5,6]indeno[1,2-c]isoquinolin-2-yl Benzoate] | 37 | 33 | 51 | 96 | 54 | significantly less cytotoxic than their respective parent compounds | 1500 ± 170 | 79 | 850 | 4570 |  |  |  |  |  |  |  |  | Top1 inhibitory activity (in words) (Human recombinant Top1): weak Top1 poisons; GI50's against various cell lines (range in words) [1]: micromolar range
+ (+, between 20 and 50% activities) |  | COc1cc2c3c(n(CCCN4CCOCC4)c(=O)c2cc1OC(=O)c1ccccc1)-c1cc2c(cc1C3=O)OCO2 [Compound 18, 2-Methoxy-6-(3-morpholinopropyl)-5,12-dioxo-6,12-dihydro-5H-[1,3]dioxolo[4′,5′:5,6]indeno[1,2-c]isoquinolin-3-yl Benzoate] | 135 | 15 | 724 | 59 | 195 | significantly less cytotoxic than their respective parent compounds | 3190 ± 622 | 2140 | 5890 | 30900 |  |  |  |  |  |  |  |  | Top1 inhibitory activity (in words) (Human recombinant Top1): weak Top1 poisons; GI50's against various cell lines (range in words) [1]: micromolar range

Further lines, the molecule ahead of its results:

SMILES | Top 1 Cleavage (Human recombinant Top1) | Top1 inhibitory activity (level) (Human recombinant Top1) | GI50 (SF-539) [nM] | GI50 (MCF-7) [nM] | GI50 (DU-145) [nM] | GI50 (UACC-62) [nM] | GI50 (SN12C) [nM] | cytotoxicity relative to parent compound (in words) [1] | mean GI50 across NCI60 cell lines (MGM) [1] [nM] | GI50 (HOP-62) [nM] | GI50 (HCT-116) [nM] | GI50 (OVCAR-3) [nM] | GI50 (SF-539; Homo sapiens) [nM] | GI50 (MCF-7; Homo sapiens, MCF7) [nM] | GI50 (DU-145; Homo sapiens) [nM] | GI50 (UACC-62; Homo sapiens) [nM] | GI50 (SN12C; Homo sapiens) [nM] | GI50 (HOP-62; Homo sapiens) [nM] | GI50 (HCT-116; Homo sapiens) [nM] | GI50 (OVCAR-3; Homo sapiens) [nM] | other results
COc1cc2c(=O)n(CCCN3CCOCC3)c3c(c2cc1OC(C)=O)C(=O)c1cc2c(cc1-3)OCO2 [Compound 11, 3-Methoxy-6-(3-morpholinopropyl)-5,12-dioxo-6,12-dihydro-5H-[1,3]dioxolo[4′,5′:5,6]indeno[1,2-c]isoquinolin-2-yl Acetate] | ++ (++, between 50 and 75% activity) | ++ | < 10 | < 10 | < 10 | 18 | < 10 | greater than the parent 8 by a factor of almost one order of magnitude | 43 ± 19 | 18 | 29 | 138 |  |  |  |  |  |  |  |  | 
COc1cc2c(=O)n(CCCN3CCOCC3)c3c(c2cc1O)C(=O)c1cc2c(cc1-3)OCO2 [Compound 8] |  | ++(+) |  |  |  |  |  |  | 412 |  |  |  | 335 | 144 | 257 | 282 | 195 | 257 | 279 | 871 | 
COc1cc2c3c(n(CCCN4CCOCC4)c(=O)c2cc1OS(=O)(=O)O)-c1cc2c(cc1C3=O)OCO2 [Compound 20, 2-Methoxy-6-(3-morpholinopropyl)-5,12-dioxo-6,12-dihydro-5H-[1,3]dioxolo[4′,5′:5,6]indeno[1,2-c]isoquinolin-3-yl Hydrogen Sulfate] | ++ (++, between 50 and 75% activity) |  | 263 | 209 | 417 | 263 | 355 |  | 912 | 389 | 389 | 1120 |  |  |  |  |  |  |  |  | 
COc1cc2c3c(n(CCCN4CCOCC4)c(=O)c2cc1O)-c1cc2c(cc1C3=O)OCO2 [Compound 9] |  |  |  |  |  |  |  |  | 76 ± 28 |  |  |  | < 10 | < 10 | < 10 | < 10 | < 10 | 10 | 20 | 30 | 
